The results in this text go back to patent US4550186A, “Binuclear copper (II) carboxylates formed from amine-carboxyboranes” (Duke University, priority 1983, dated 1985).

Test [1] concerns CF1 male mice. Description: Antihyperlipidemic screen in normal mice. Type of test: in vivo, mouse. The settings on record: for Serum Cholesterol / Serum Triglyceride: CF1 male mice I.P. Here is the method: Compounds to be tested were suspended in 1% carboxymethylcellulose-water and administered to CF1 male mice (~25 g) intraperitoneally for 16 days or Holtzman male rats (~350 g) orally by an intubation needle for 16 days. On days 9 or 16, blood was obtained by tail vein bleeding and the serum separated by centrifugation for 3 min. The serum cholesterol levels were determined by a modification of the Liebermann-Burchard reaction as described in Ness et al, Clin. Chim. Acta, 10, 229 (1964). Serum was also collected on day 16 and the triglyceride content was determined by a commercial kit, The Fisher Hycel Triglyceride Test Kit.
Data are expressed in the Table 2-7 as percent of control ± the standard deviation. The probable significant level (P) between each test group and the control group was determined by the Student's "t" test.

Test [2] concerns the target phosphoribosyl pyrophosphate amidotransferase (Mus musculus, UniProt Q8CIH9). The test is described as follows: In vivo phosphoribosyl pyrophosphate amidotransferase activity. As to the method:
CF1 male mice (~30 g) were implanted with 2×10^6 Ehrlich ascites tumor cells, intraperitoneally on Day 0. Compound I was suspended by homogenation in 0.05% polysorbate.80-water and administered intraperitoneally at 10 and 20 mg/kg for 9 days to determine its effectiveness for inhibition of tumor growth. Mice were sacrificed on Day 10, and the ascites fluid was collected from the peritoneal cavity. The volume and ascrit (packed cell volume) were determined for each animal and the percent inhibition of tumor growth was calculated. For the metabolic studies, mice were treated on Days 8 and 9 with 10 mg/kg of Compound I, intraperitoneally. […]
Carbamyl phosphate synthetase activity was determined using the reaction medium of Kalman et al [Am. […] Citrulline formed from ornithine was measured at 490 nm by the method of Archibald [J. Biol. Chem., 156, 121 (1944)]. […] The ^14 CO2 generated in 15 min was trapped in 1M KOH and counted. Thymidylate synthetase activity was determined using a post-mitochondrial supernatant (9000 g×10 min) and 5 μCi of 5-^3 H-deoxyuridine monophosphate (14 Ci/mmol) according to the method of Kampf et al [ J. Med. Chem., 19, 903 (1976)]. ^14 C-Formate incorporation into purines was determined by the method of Spassova et al [Biochem. Pharmacol., 25, 923 (1976)] using 0.5 μCi of ^14 C-formic acid (52.0 mCi/mmol). […] The Rf value for xanthine monophosphate was scraped and counted. […]

Chain of phosphoribosyl pyrophosphate amidotransferase (Q8CIH9 12-517): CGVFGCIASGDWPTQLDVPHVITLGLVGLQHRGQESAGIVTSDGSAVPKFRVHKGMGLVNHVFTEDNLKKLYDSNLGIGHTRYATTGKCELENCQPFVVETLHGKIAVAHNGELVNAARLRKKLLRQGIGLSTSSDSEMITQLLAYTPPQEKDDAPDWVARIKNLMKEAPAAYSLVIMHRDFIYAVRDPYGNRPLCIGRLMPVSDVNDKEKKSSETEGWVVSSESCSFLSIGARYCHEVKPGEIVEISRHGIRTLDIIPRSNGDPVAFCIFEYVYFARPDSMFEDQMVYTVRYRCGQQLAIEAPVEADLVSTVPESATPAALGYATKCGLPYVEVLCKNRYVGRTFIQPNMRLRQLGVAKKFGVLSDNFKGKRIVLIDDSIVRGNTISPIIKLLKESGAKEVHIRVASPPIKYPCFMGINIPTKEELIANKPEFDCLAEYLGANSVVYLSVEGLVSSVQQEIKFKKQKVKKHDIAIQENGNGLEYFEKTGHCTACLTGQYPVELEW

As for “{Cu[(CH3)3 N.BH2 CO2 ]2.(CH3)3 N.BH2 COOH} [Compound I]”, the “Serum Cholesterol” value in test [1] (2.5 mg/kg, Day 9) was determined as 61 ± 5 % Control; in test [1] (2.5 mg/kg, Day 16) it was 62 ± 6 % Control; in test [1] (5.0 mg/kg, Day 9), 67 ± 6 % Control; in test [1] (5.0 mg/kg, Day 16) it was 63 ± 5 % Control; in test [1] (10.0 mg/kg, Day 9) it was 71 ± 6 % Control; in test [1] (10.0 mg/kg, Day 16) it was 63 ± 5 % Control. Moreover, the “Serum Cholesterol” value in test [1] (20.0 mg/kg, Day 9) is given as 52 ± 5 % Control; in test [1] (20.0 mg/kg, Day 16) it was 53 ± 4 % Control. Also, the “Serum Triglyceride” value in test [1] (2.5 mg/kg, Day 16) came to 50 ± 6 % Control; in test [1] (5.0 mg/kg, Day 16), 69 ± 6 % Control; in test [1] (10.0 mg/kg, Day 16), 47 ± 5 % Control. Further, the “Serum triglyceride levels reduced” value was “greater than 50%” in test [1] (mice, 2.5 mg/kg/day) and “greater than 50%” in test [1] (mice, 10 mg/kg/day). For the same substance, in test [1] (mice, 10 mg/kg/day), the serum triglyceride reduction was found to be 53%. In test [1] (mice, 20 mg/kg/day), the “reduction of serum cholesterol (maximal effect)” value stood at 47%. For the same substance, in test [2] (10 mg/kg/day I.P. on Days 8 and 9), the “Phosphoribosyl pyrophosphate amidotransferase activity” value turned out to be 41 ± 3 % Control. In addition, the “Phosphoribosyl pyrophosphate amido transferase activity reduced” value in test [2] (drug administration for 2 days) was 59%.
